Values of other authors as cited in US12005094B2, “Inhibitor of inflammatory conditions” (Compton Developments Ltd., priority 2009, dated 2024).

Tests used:
EAE = details: Clomipramine vs vehicle control, divergent from day 10
[1] = system: skin edema and hyperplasia; details: topical administration
[2] = system: antigen-induced arthritis; details: oral administration
ear edema = details: topical

| SMILES | onset of disease symptoms (average EAE scores) (EAE) | skin edema and hyperplasia [1] | reduction in paw swelling [2] | effect on lipoxygenase products (lipoxygenase products) | PGE2 (ear edema) | ear edema (ear edema) | nitrite release (ear edema) |
| --- | --- | --- | --- | --- | --- | --- | --- |
| CN(C)CCCN1c2ccccc2CCc2ccc(Cl)cc21 [Clomipramine] | delayed |  |  |  |  |  |  |
| C=C(C)[C@@H]1CC[C@]2(C)CC[C@]3(C)[C@H](CC[C@@H]4[C@@]5(C)CC[C@H](O)C(C)(C)[C@@H]5CC[C@]43C)[C@@H]12 [Lupeol, lupeol] |  | significantly inhibited skin edema and hyperplasia | 39% | no effect on lipoxygenase products | significant reduction in PGE2 | suppressed ear edema | weaker inhibition of nitrite release |
